According to paper PMC9228270, “Design, Synthesis, In Silico Studies and Inhibitory Activity towards Bcr-Abl, BTK and FLT3-ITD of New 2,6,9-Trisubstituted Purine Derivatives as Potential Agents for the Treatment of Leukaemia” (Pharmaceutics, 2022):
“And” between values parts separate entries of the source, which are not always exact repeats. Equal entries are not always repeated.

Columns and labels:
Bcr-Abl1 = Bcr-Abl1 (Homo sapiens, UniProt P00519); test: Recombinant kinase radioassay, Abl; assay type: biochemical; conditions: ATP 1 µM, at least three independent experiments, range 0.01–100 µM
Protocol: (§1) Recombinant kinase inhibition was measured using standard radioassay. Bcr-Abl1 and Cdk-2/cyclin E kinases were produced in-house, FLT3-ITD and BTK were purchased from ProQinase. The kinases were assayed with suitable substrates (500 µM peptide […] for Abl, 1 mg/mL histone H1 for Cdk-2, 100 µM poly (Glu:Tyr; 4:1)) in the presence of ATP (1 µM for Bcr-Abl, 15 µM for Cdk-2 and BTK), 0.05 µCi [γ-^33P]ATP and the test compound in reaction buffer (60 mM HEPES-NaOH, pH 7.5, 3 mM MgCl2, 3 mM MnCl2, 3 µM Na orthovanadate, 1.2 mM DTT, 2.5 µg/50 µL PEG20.000). The reactions were stopped by adding 3% aq. H3PO4. P-81 phosphocellulose (Whatman) was used to separate phosphorylated substrates. Kinase activity was quantified using a FLA-7000 digital image analyser.

BTK = target: T1, BTK (Homo sapiens, UniProt Q06187); test: Recombinant kinase radioassay, BTK; assay type: biochemical; conditions: recombinant kinase, radioassay, ATP 15 µM; at least three independent experiments, range 0.01–100 µM; read-out: IC50 BTK
T1 construct: purchased ProQinase
Protocol: as §1

FLT3-ITD [1] = target: T2, FLT3-ITD (Homo sapiens, UniProt P36888, ITD); test: Recombinant kinase radioassay, FLT3-ITD; assay type: biochemical; conditions: recombinant kinase, radioassay; at least three independent experiments, range 0.01–100 µM; read-out: IC50 FLT3-ITD
T2 sequence (P36888 27-993): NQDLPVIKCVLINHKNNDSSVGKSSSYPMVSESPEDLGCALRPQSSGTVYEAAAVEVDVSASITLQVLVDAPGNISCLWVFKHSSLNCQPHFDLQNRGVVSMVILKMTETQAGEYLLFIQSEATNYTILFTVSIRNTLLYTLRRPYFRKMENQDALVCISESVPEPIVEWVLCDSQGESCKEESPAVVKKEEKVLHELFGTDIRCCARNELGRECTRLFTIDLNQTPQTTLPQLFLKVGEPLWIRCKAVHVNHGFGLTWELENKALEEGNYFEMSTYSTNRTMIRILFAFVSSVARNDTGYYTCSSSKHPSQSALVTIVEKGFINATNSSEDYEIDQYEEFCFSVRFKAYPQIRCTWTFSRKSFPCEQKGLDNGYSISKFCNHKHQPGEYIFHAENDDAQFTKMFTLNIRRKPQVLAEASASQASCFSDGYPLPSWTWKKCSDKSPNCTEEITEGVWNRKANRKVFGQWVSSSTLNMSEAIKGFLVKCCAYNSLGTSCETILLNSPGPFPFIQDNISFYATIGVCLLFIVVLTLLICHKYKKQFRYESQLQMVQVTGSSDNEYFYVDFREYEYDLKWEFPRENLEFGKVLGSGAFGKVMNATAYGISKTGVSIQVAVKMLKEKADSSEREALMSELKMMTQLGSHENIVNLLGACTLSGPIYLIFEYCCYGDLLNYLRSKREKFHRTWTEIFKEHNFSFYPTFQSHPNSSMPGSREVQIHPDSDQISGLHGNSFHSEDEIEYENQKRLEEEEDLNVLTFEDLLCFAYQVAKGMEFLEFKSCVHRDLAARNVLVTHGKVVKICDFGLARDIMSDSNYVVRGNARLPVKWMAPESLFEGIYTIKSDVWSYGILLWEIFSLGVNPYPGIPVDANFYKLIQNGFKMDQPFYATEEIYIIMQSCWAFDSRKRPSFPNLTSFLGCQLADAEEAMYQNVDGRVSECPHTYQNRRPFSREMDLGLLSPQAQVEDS
Protocol: as §1

Cdk-2/cyclin E = target: T3, Cdk-2/cyclin E (Homo sapiens, UniProt P24941); test: Recombinant kinase radioassay, Cdk-2/cyclin E; assay type: biochemical; conditions: ATP 15 µM, at least three independent experiments, range 0.01–100 µM
T3 construct: made in house
Protocol: as §1

K562 = test: Cytotoxicity assay (resazurin), K562; assay type: cell-based; conditions: Homo sapiens, 72 h, three independent experiments, range 0.1 to 25 µM
Protocol: (§2) Cytotoxicity assays for the purines were quantified using the resazurin method, a dye to measure redox reactions occurring in the mitochondria of live cells. The cells were treated by tested compounds (in triplicate, six different doses) for 72 h.

HL-60 = test: Cytotoxicity assay (resazurin), HL-60; assay type: cell-based; conditions: Homo sapiens, 72 h, three independent experiments, range 0.1 to 25 µM
Protocol: as §2

MV4-11 = test: Cytotoxicity assay (resazurin), MV4-11; assay type: cell-based; conditions: Homo sapiens, 72 h, three independent experiments, range 0.1 to 25 µM
Protocol: as §2

Ramos = test: Cytotoxicity assay (resazurin), Ramos; assay type: cell-based; conditions: Homo sapiens, 72 h, three independent experiments, range 0.1 to 25 µM
Protocol: as §2

CEM = test: Cytotoxicity assay (resazurin), CEM; assay type: cell-based; conditions: Homo sapiens, CCRF-CEM, 72 h, three independent experiments, range 0.1 to 25 µM
Protocol: as §2

[2] = test system: FLT3-ITD signalling in MV4-11 cells; test: Immunoblotting of FLT3-ITD-dependent pathway in MV4-11; assay type: cell-based; conditions: 4 h
Protocol: (§3) Protein changes in the treated cells were analysed using immunoblotting. Briefly, cell lysates were separated on SDS-polyacrylamide gels and electroblotted onto nitrocellulose membranes. After blocking, overnight incubation with specific primary antibodies and incubation with peroxidase-conjugated secondary antibodies, the peroxidase activity was detected with Super-Signal West Pico reagents (Thermo Scientific, Waltham, MA, USA) using a CCD camera LAS-4000 (Fujifilm). The following specific antibodies were purchased from Cell Signalling: anti-FLT3 (clone 8F2), anti-phospho-FLT3 Y589/591 (clone 30D4), anti-STAT5 (clone D2O6Y), anti-phospho-STAT5 Y694, anti-ERK1/2, anti-phospho-ERK1/2 T202/Y204, anti-Akt (clone C67E7), anti-phospho-Akt S473 (clone D9E), anti-phospho-Bcr Y177, anti-CrkL (clone 32H4), anti-phospho-CrkL Y207, anti-BTK (clone C82B8), anti-phospho-BTK Y223, anti-PLCγ2, anti-phospho-PLCγ2 Y1217, and anti-PARP-1 (clone 46D11). Anti-α-tubulin (clone DM1A) was purchased from Sigma Aldrich.
(§4) Based on their inhibitory effects on recombinant kinases as well as cytotoxic effects in relevant cell line models, the purine derivatives 4i, 5b and 5j were selected for further experiments to confirm the expected molecular mechanism of action. The candidate compounds were tested to determine changes in signalling pathways downstream of the oncogenic kinases in cells. […]

MV4-11 cells = test: Flow cytometry cell cycle, MV4-11; assay type: cell-based; conditions: 24 h, sub-micromolar concentrations
Protocol: (§5) Cell cycle effects were measured using flow cytometric determination of DNA content. MV4-11 and K562 cells were treated with tested compounds for 24 h. After the staining with propidium iodide, the DNA content was analysed by flow cytometry using a 488 nm laser (BD FACS Verse with software BD FACSuite^TM, version 1.0.6.). The cell cycle distribution was analysed using ModFit LT (Verity Software House 5.0, Topsham, ME, USA).

[3] = test system: caspase 3/7 activity in MV4-11 cells; test: Caspase-3/7 assay, MV4-11; assay type: cell-based; conditions: 24 h
Protocol: (§6) MV4-11 and K562 cells were kept in a 96-well plate were treated with increasing concentrations of compound 4i and 5b for 24 h. After this period, caspase-3/7 assay buffer (150 mM HEPES pH 7.4, 450 mM NaCl, 150 mM KCl, 30 mM MgCl2, 1.2 mM EGTA, 1.5% Nonidet P40, 0.3% CHAPS, 30% sucrose, 30 mM DTT, and 3 mM PMSF) containing 150 µM peptide substrate Ac-DEVD-AMC (Enzo Life Sciences, Farmingdale, NY, USA) was added, and after 2 h incubation, the fluorescence of AMC was measured using a Fluoroskan Ascent microplate reader (Labsystems) at 346 nm/442 nm (excitation/emission).

[4] = test system: PARP-1 cleavage in MV4-11; test: Immunoblotting of PARP-1 cleavage, MV4-11; assay type: cell-based; conditions: MV4-11 cells, 4 h
Protocol: as §3, with “Anti-α-tubulin (clone DM1A) was purchased from Sigma Aldrich.” left out
(§7) Finally, we analysed the mechanism of cell death induced by the prepared compounds 4i and 5b. Proteolytic cleavage of PARP-1—a well-established protein involved in apoptosis—was analysed in K562 and MV4-11 treated with respective compounds for 4 h. […] The PARP-1 fragment was not detected in MV4-11 cells treated with 5b because the compound was not effective in inducing apoptosis after 4 h of treatment (Figure 14B).

FLT3-ITD [5] = target: T4, FLT3-ITD (Homo sapiens, UniProt P36888); parameters: method as in PMID 29672049; conditions: cited from earlier work
T4 sequence (P36888 27-993): T2 sequence (P36888 27-993)

[6] = test system: Bcr-Abl signalling in K562 cells; test: Immunoblotting of Bcr-Abl downstream signalling in K562; assay type: cell-based; conditions: 4 h
Protocol: as §3, §4

K562 cells = test: Flow cytometry cell cycle, K562; assay type: cell-based; conditions: 24 h, sub-micromolar concentrations
Protocol: as §5

[7] = test system: caspase 3/7 activity in K562 cells; test: Caspase-3/7 assay, K562; assay type: cell-based; conditions: 24 h, at 1 µM
Protocol: as §6

PARP-1 cleavage in K562 = test: Immunoblotting of PARP-1 cleavage, K562; assay type: cell-based; conditions: K562 cells, 4 h
Protocol: as §3, with “Anti-α-tubulin (clone DM1A) was purchased from Sigma Aldrich.” left out
as §7

[8] = test system: BTK signalling in Ramos cells; test: Immunoblotting of BTK signalling in anti-IgM-stimulated Ramos; assay type: cell-based; conditions: immunoglobulin M-activated Ramos cells, 4 h, dose-dependent
Protocol: as §3, §4

Bcr-Abl1, sequence (P00519 27-1130): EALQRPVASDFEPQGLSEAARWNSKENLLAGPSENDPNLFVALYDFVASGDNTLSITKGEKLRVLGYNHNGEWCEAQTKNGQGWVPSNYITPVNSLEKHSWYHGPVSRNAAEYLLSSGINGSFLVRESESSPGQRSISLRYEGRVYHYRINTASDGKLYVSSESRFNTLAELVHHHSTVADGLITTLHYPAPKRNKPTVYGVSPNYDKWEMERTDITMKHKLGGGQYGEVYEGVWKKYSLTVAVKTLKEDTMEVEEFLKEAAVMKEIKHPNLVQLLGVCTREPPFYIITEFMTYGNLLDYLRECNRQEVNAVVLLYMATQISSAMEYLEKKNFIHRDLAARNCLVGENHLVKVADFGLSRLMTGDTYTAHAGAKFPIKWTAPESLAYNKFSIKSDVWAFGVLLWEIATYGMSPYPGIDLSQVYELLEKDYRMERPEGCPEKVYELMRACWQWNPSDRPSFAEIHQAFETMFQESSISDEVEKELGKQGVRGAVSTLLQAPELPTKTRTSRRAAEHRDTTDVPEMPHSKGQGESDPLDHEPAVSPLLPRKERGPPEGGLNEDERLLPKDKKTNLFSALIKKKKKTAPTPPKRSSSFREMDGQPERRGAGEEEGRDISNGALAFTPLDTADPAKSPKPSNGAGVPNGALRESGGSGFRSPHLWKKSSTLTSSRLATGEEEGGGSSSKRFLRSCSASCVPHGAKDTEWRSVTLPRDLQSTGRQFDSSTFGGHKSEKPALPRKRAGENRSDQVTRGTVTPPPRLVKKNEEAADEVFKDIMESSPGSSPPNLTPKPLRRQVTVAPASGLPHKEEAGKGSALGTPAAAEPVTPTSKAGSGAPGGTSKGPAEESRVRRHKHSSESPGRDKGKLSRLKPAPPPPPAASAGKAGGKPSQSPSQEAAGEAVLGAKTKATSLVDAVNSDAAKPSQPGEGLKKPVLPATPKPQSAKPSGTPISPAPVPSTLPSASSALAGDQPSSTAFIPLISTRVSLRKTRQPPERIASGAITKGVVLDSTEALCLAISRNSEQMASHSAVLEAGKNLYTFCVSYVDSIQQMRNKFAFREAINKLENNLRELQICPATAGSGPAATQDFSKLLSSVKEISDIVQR
T1 sequence (Q06187 whole entry): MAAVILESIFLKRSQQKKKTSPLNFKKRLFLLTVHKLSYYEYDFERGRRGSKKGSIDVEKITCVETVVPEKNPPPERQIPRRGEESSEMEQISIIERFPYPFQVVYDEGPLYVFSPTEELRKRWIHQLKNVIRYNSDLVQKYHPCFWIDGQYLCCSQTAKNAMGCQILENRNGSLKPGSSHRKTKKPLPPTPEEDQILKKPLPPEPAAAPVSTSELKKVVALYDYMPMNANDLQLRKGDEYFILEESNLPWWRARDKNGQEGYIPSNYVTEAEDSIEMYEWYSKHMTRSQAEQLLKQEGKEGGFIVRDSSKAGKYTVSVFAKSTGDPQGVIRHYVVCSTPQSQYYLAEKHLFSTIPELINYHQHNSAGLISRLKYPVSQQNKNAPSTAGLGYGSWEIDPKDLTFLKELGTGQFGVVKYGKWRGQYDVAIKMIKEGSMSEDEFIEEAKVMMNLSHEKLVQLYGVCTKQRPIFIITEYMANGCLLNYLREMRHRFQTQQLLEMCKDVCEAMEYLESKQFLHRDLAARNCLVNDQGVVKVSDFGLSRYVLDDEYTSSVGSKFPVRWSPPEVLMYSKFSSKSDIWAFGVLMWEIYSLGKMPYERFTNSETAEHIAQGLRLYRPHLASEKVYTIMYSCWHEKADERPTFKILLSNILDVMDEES

Compound	IC50 (Bcr-Abl1) [nM]	IC50 (BTK)	IC50 (FLT3-ITD [1]) [nM]	IC50 (Cdk-2/cyclin E) [nM]	GI50 (K562) [nM]	GI50 (HL-60) [nM]	GI50 (MV4-11) [nM]	GI50 (Ramos) [nM]	GI50 (CEM) [nM]	melting point [°C]	other results
CC(C)CCn1cnc2c(Nc3cccc(F)c3)nc(Nc3ccc(N4CCN(C)CC4)cc3)nc21 [Compound 5b, N^6-(3-Fluorophenyl)-9-isopentyl-N^2-(4-(4-methylpiperazin-1-yl)phenyl)-9H-purine-2,6-diamine]	> 50000	3780 ± 860 nM	380	21100 ± 1910	18600 ± 3730	2040 ± 580	2890 ± 950	18700 ± 3100	> 25000		Phosphorylation of STAT5 [2]: inhibited; Autophosphorylation of the oncogenic FLT3-ITD ([2]; increasing concentrations): clear suppression; Cell cycle effect (MV4-11 cells): effectively induced G1 arrest; Caspase 3/7 induction [3]: a higher concentration of 5b was required for caspase induction; PARP-1 fragment [4]: not detected
NC1CCC(Nc2nc(Nc3ccc(CN4CCOCC4)cc3)c3ncn(C4CCCC4)c3n2)CC1 (stereo not shown) [II]											IC50 (FLT3-ITD [5]): 2 nM
CN1CCN(c2ccc(Nc3nc(Nc4ccc(C#N)cc4)c4ncn(CC5CC5)c4n3)cc2)CC1 [Compound 4i, 4-((9-(Cyclopropylmethyl)-2-((4-(4-methylpiperazin-1-yl)phenyl)amino)-9H-purin-6-yl)amino)benzonitrile]	100 ± 30	910 ± 190 nM	370	10800 ± 1600	1030 ± 210	3170 ± 570	890 ± 70	1490 ± 50	1850 ± 100		Concentration from which autophosphorylation of Bcr (pBcr) is inhibited [6]: ≥ 0.08 µM; Level of phosphorylated STAT5 (pSTAT5) and CrkL (pCrkL) [6]: dose-dependently decreased; Cell cycle effect (K562 cells): effectively induced G1 arrest; Relative caspase 3/7 activity [7]: nearly five-fold increase; 89 kDa fragment of PARP-1 (PARP-1 cleavage in K562): increased levels
CCCCCCCCn1cnc2c(Nc3ccccc3)nc(Nc3ccc(N4CCN(C)CC4)cc3)nc21 [Compound 5j, N^2-(4-(4-Methylpiperazin-1-yl)phenyl)-9-octyl-N^6-phenyl-9H-purine-2,6-diamine]	> 100000	< 580 nM and 410 nM	20300	19000 ± 1550	8190 ± 60	1250 ± 110	4450 ± 1480	14200 ± 2610	23600 ± 2010	171.3 to 173.5	Levels of phosphorylated BTK and downstream targets PLCγ2 and Akt [8]: decreased
Cc1cccc(Nc2nc(Nc3ccc(N4CCN(C)CC4)cc3)nc3c2ncn3CC2CC2)c1 [Compound 4c, 9-(Cyclopropylmethyl)-N^2-(4-(4-methylpiperazin-1-yl)phenyl)-N^6-(m-tolyl)-9H-purine-2,6-diamine]	100	1300 ± 20 nM	1500	22900 ± 2080	2860 ± 760	9790 ± 870	1420 ± 230	12500 ± 480	16400 ± 360	135 to 137	
CN1CCN(c2ccc(Nc3nc(Nc4cccc(Cl)c4)c4ncn(CC5CC5)c4n3)cc2)CC1 [Compound 4b, N^6-(3-Chlorophenyl)-9-(cyclopropylmethyl)-N^2-(4-(4-methylpiperazin-1-yl)phenyl)-9H-purine-2,6-diamine]	120 ± 30	1280 ± 180 nM	1120	20000 ± 2070	1990 ± 820	1930 ± 1050	1940 ± 160	10600 ± 3080	19000 ± 1070	152 to 153	
CN1CCN(c2ccc(Nc3nc(Nc4cccc(C(F)(F)F)c4)c4ncn(CC5CC5)c4n3)cc2)CC1 [Compound 4d, 9-(Cyclopropylmethyl)-N^2-(4-(4-methylpiperazin-1-yl)phenyl)-N^6-(3-(trifluoromethyl)phenyl)-9H-purine-2,6-diamine]	1780 ± 70	22700 ± 2880 nM	1800	15500 ± 1700	4510 ± 360	720 ± 160	2840 ± 290	3830 ± 100	23780 ± 80	134 to 135	
